# Tests used:
# Type in all cases: binding
# [1] = biological target: T1, E. coli dUTPase (EcDUT) (Escherichia coli, UniProt P06968, Q94H, form not given); assay: X-ray crystallography, […] Å; conditions: 5 mM dUPNPP, Mg2+, pH 7.5; active site; non-hydrolysable substrate analogue
# T1 construct: gene dut; expressed in E. coli BL21(DE3) Rosetta; homotrimer; C-terminal residues R150, Q151
# [2] = biological target: T2, E. coli dUTPase (EcDUT) (Escherichia coli, UniProt P06968, Q94R/F146W, form not given); assay: tryptophan fluorescence; conditions: 3 µM enzyme, 100 µM dUPNPP, 5 mM MgCl2, pH 7.5, 293 K; active site
# T2 construct: gene dut; expressed in E. coli BL21(DE3) Rosetta; homotrimer; C-terminal residues R150, Q151
# [3] = biological target: T3, E. coli dUTPase (EcDUT) (Escherichia coli, UniProt P06968, F146W, form not given); assay: tryptophan fluorescence; acrylamide quenching; conditions: 3 µM enzyme, 100 µM dUPNPP, 5 mM MgCl2, pH 7.5, 293 K; active site; quenching with 4 µM enzyme, 1.5 mM dUPNPP
# T3 construct: gene dut; expressed in E. coli BL21(DE3) Rosetta; homotrimer; C-terminal residues R150, Q151
# [4] = biological target: T4, E. coli dUTPase (EcDUT) (Escherichia coli, UniProt P06968, Q94H/F146W, form not given); assay: tryptophan fluorescence; acrylamide quenching; conditions: 3 µM enzyme, 100 µM dUPNPP, 5 mM MgCl2, pH 7.5, 293 K; active site; quenching with 4 µM enzyme, 1.5 mM dUPNPP
# T4 construct: gene dut; expressed in E. coli BL21(DE3) Rosetta; homotrimer; C-terminal residues R150, Q151
compound,measurement,setting,value
O=c1ccn([C@H]2C[C@H](O)[C@@H](COP(=O)(O)NP(=O)(O)OP(=O)(O)O)O2)c(=O)[nH]1 [dUPNPP],"X-ray crystallography, 1.8 Å",[1],we crystallized the EcDUT^Q93H dUTPase mutant in the presence of the non-hydrolysable substrate analogue dUPNPP
same,tryptophan fluorescence,[2],allowed us to follow substrate analogue and Stl binding of the three arm-tryptophan mutant enzyme
same,tryptophan fluorescence; acrylamide quenching,[3],allowed us to follow substrate analogue and Stl binding of the three arm-tryptophan mutant enzyme
same,tryptophan fluorescence; acrylamide quenching,[4],allowed us to follow substrate analogue and Stl binding of the three arm-tryptophan mutant enzyme
